Laboratory results from PubChem BioAssay AID608 (Sanford-Burnham Center for Chemical Genomics, 2007).
Activity calls are given as the source filed them. No rule for the calls is given here.

Target: Peptidyl-prolyl cis-trans isomerase FKBP1A (Homo sapiens) (UniProt P62942)
Test: small-molecule binding to FKBP12 – biophysical, NMR detection (AID 608)
Details: purified FKBP12

Sequence of Peptidyl-prolyl cis-trans isomerase FKBP1A (Homo sapiens) (P62942 whole entry, looked up): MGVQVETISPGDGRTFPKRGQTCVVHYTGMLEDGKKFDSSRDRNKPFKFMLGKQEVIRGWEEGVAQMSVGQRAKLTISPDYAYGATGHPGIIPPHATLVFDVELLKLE

## O=C(O)C12CC3CC(CC(O)(C3)C1)C2
  Kd: > 4 mM (inactive)

## C/C=C/COc1nc2c(c(=O)n(C)c(=O)n2C)n1C
  Kd: > 4 mM (inactive)

## CC1=CC(=O)C2C(C)(C)CCC[C@]2(C)[C@@]1(O)CCc1ccoc1 (stereo partly drawn)
  Kd: > 4 mM (inactive)

## COc1ccc2c(=O)c(OC)c(-c3ccccc3)oc2c1
  Kd: > 4 mM (inactive)

## C=C[C@@](C)(O)CCC1C(=C)C[C@H](OC(C)=O)C2C(C)(C)CCCC12C (stereo partly drawn)
  Kd: > 4 mM (inactive)

## CC(C)(O)CC[C@@H](O)[C@](C)(O)C1CC[C@@]2(O)C3=CC(=O)C4C[C@@H](O)[C@@H](O)C[C@]4(C)C3CC[C@]12C (stereo partly drawn)
  Kd: > 4 mM (inactive)

## CS(=O)(=O)c1cccc(C(=O)Nc2nccs2)c1
  Kd: > 4 mM (inactive)

## O=c1[nH]c2ccccc2c(=O)n1CCCO
  Kd: > 4 mM (inactive)

## NC12CC3CC(C1)CC(CC(=O)O)(C3)C2
  Kd: > 4 mM (inactive)

## Oc1ccc2c(c1)OCO2
  Kd: > 4 mM (inactive)

## C/C=C(\C)C(=O)O[C@@H]1c2c(ccc3ccc(=O)oc23)OC(C)(C)[C@@H]1OC(C)=O
  Kd: > 4 mM (inactive)

## O=C(NCC1CCNCC1)c1ccccn1
  Kd: > 4 mM (inactive)

## Cc1ccc(-c2ccc(OCC(=O)N3CCOCC3)cc2)cc1
  Kd: inactive

## NN1C(=O)CSC1=Nc1ccccc1
  Kd: > 4 mM (inactive)

## O=c1cc(CO)oc(CN2CCCCC2)c1O
  Kd: > 4 mM (inactive)

## Cn1c(=O)n(CC(=O)Nc2cccnc2)c2ccccc21
  Kd: > 4 mM (inactive)

## O=C(c1ccccc1F)N1CCN(c2ccccc2)CC1
  Kd: > 4 mM (inactive)

## O=C(Nc1ccc(OCC(=O)N2CCOCC2)cc1)c1ccccc1Cl
  Kd: > 4 mM (inactive)

## O=c1cc(O)nc(SCc2ccccc2)[nH]1
  Kd: > 4 mM (inactive)

## Cn1ccc(NC(=S)Nc2cccc([N+](=O)[O-])c2)n1
  Kd: > 4 mM (inactive)

## OCc1ccc(-n2cccn2)cc1
  Kd: > 4 mM (inactive)

## Oc1ccc([C@H]2Oc3cc(O)cc(O)c3C[C@H]2O)cc1
  Kd: > 4 mM (inactive)

## FC(F)(F)c1cc(-c2ccco2)nc(N2CCOCC2)n1
  Kd: > 4 mM (inactive)

## OCC1Cc2ccccc2CN1 (stereo not drawn)
  Kd: > 4 mM (inactive)

## O=C(c1ncc[nH]1)c1ccccc1C(=O)N1CCOCC1
  Kd: > 4 mM (inactive)

## O=C1NCCCC1C(=O)N1CCCCC1 (stereo not drawn)
  Kd: > 4 mM (inactive)

## CC(=O)O[C@H]1C[C@@H](OC(C)=O)C(C)(C)C2C[C@@H](O)[C@]3(C)C(CC[C@@]4(C)[C@H](c5ccoc5)OC(=O)[C@H]5O[C@]543)[C@]21C (stereo partly drawn)
  Kd: > 4 mM (inactive)

## Cc1cc(C(=O)Nc2sc(C)c(C)c2C#N)c(C)o1
  Kd: > 4 mM (inactive)

## Oc1ccc(-c2n[nH]c(=S)n2Cc2ccco2)cc1
  Kd: > 4 mM (inactive)

## CN(c1ccccc1C(=O)N1CCCC1)S(C)(=O)=O
  Kd: > 4 mM (inactive)

## O=C(O[C@@H]1Cc2c(O)cc(O)cc2O[C@@H]1c1ccc(O)c(O)c1)c1cc(O)c(O)c(O)c1
  Kd: > 4 mM (inactive)

## Cc1nn(-c2ccccc2)nc1CO
  Kd: > 4 mM (inactive)

## Cc1cc(C)c2ccc[n+]([O-])c2c1O
  Kd: > 4 mM (inactive)

## CC(=O)N1N=C(N)SC1c1cccnc1 (stereo not drawn)
  Kd: > 4 mM (inactive)

## O=C(c1sc2cc(Cl)ccc2c1Cl)N1CCOCC1
  Kd: inactive

## CC(=O)O[C@@H]1CC2C(C)(C)[C@H](O)C[C@H](O)[C@]2(C)C2CC[C@@]3(C)C(=CC(=O)O[C@H]3c3ccoc3)[C@@]21C (stereo partly drawn)
  Kd: > 4 mM (inactive)

## Cc1cc(OCC(=O)N2CC(C)OC(C)C2)cc(C)c1Cl (stereo not drawn)
  Kd: > 4 mM (inactive)

## COc1ccc(S(=O)(=O)N2CCC(C(N)=O)CC2)cc1
  Kd: > 4 mM (inactive)

## CC1(C)C(=O)N(O)C(C)(C)C(=O)N1O
  Kd: > 4 mM (inactive)

## O=C(Nc1ccccc1N1CCCC1)c1cccnc1
  Kd: > 4 mM (inactive)

## O=C1CNC(=O)/C1=C/c1ccc(O)cc1
  Kd: > 4 mM (inactive)

## Nc1scc[n+]1CC(=O)[O-]
  Kd: > 4 mM (inactive)

## CC(=O)Nc1nc(C)c(C(C)=O)s1
  Kd: > 4 mM (inactive)

## Cc1nccn1CCC(=O)O
  Kd: > 4 mM (inactive)

## COC1=C(OC)C(=O)C(C/C=C(\C)CC/C=C(\C)CC/C=C(\C)CC/C=C(/C)CC/C=C(\C)CC/C=C(\C)CC/C=C(\C)CC/C=C(\C)CC/C=C(\C)CCC=C(C)C)=C(C)C1=O
  Kd: > 4 mM (inactive)

## O=C1NNC(=O)C2C3c4ccccc4C(c4ccccc43)C12 (stereo not drawn)
  Kd: > 4 mM (inactive)

## Cc1cc(=O)c2c(O)cc(O)c(C)c2o1
  Kd: > 4 mM (inactive)

## c1csc(-c2nnc3ccccn23)c1
  Kd: > 4 mM (inactive)

## COc1cccc(Oc2ccc(N)cn2)c1
  Kd: > 4 mM (inactive)

## NC(=O)CN=Cc1c(O)[nH]c2ccccc12
  Kd: > 4 mM (inactive)

## Cc1ccc(OCC(=O)N2CCOCC2)c(C)c1
  Kd: inactive

## COC(=O)c1cc2cc(N)ccc2s1
  Kd: > 4 mM (inactive)

## O=c1[nH]cc(NCc2ccco2)c(=O)[nH]1
  Kd: > 4 mM (inactive)

## Nc1ccc(-c2cn3c(n2)SCC3)cc1
  Kd: > 4 mM (inactive)

## O=C(O)CCCc1nc2ccccc2s1
  Kd: > 4 mM (inactive)

## Cn1c(=O)c2[nH]cnc2n(C)c1=O
  Kd: > 4 mM (inactive)

## CC1(c2ccncc2)NC(=O)NC1=O (stereo not drawn)
  Kd: > 4 mM (inactive)

## O=C(O)C1CC(=O)N(C2Cc3ccccc3C2)C1 (stereo not drawn)
  Kd: > 4 mM (inactive)

## O=C1CSC(=S)N1N1C(=O)C2C3C=CC(C3)C2C1=O (stereo not drawn)
  Kd: > 4 mM (inactive)

## CC(NC(=O)c1ccco1)c1ccc2c(c1)OCCO2 (stereo not drawn)
  Kd: > 4 mM (inactive)

## Cc1cc(C)n(-c2nc(C)nc(N)n2)n1
  Kd: > 4 mM (inactive)

## CCCNC(=O)CSc1nnc(C)s1
  Kd: > 4 mM (inactive)

## Cc1cc(Oc2ccccc2)nc(N)n1
  Kd: > 4 mM (inactive)

## Nc1cc(C(=O)O)ccc1N1CCCCCC1
  Kd: > 4 mM (inactive)

## Fc1cccc(Cl)c1CN1CCCNCC1
  Kd: > 4 mM (inactive)

## Nc1ccc(-n2cccc2)cc1
  Kd: > 4 mM (inactive)

## O=C1CCC(=O)N1c1cccc([N+](=O)[O-])c1
  Kd: > 4 mM (inactive)

## CS(=O)(=O)c1ccc2nc(N)sc2c1
  Kd: > 4 mM (inactive)

## Nc1ccc2c(c1)COc1ccccc1O2
  Kd: > 4 mM (inactive)

## Cc1ccc(SCc2nc(-c3ccncc3)no2)cc1
  Kd: inactive

## O=C(Nc1cccc(O)c1)c1ccccc1
  Kd: > 4 mM (inactive)

## C[C@H]1C(=O)O[C@@H]2CCN3CC=C(COC(=O)[C@](C)(O)[C@]1(C)O)[C@H]23
  Kd: > 4 mM (inactive)

## C/C=C(\C)C(=O)OC1[C@@H]2C=C3C(CC[C@]4(C)C3CC(=O)O[C@H]4c3ccoc3)C(C)(C2=O)[C@@H](C(O)C(=O)OC)C1(C)C (stereo partly drawn)
  Kd: > 4 mM (inactive)

## Cc1cc2c(=O)n(C)c(SCC(N)=O)nc2s1
  Kd: > 4 mM (inactive)

## O=C(Nc1cccnc1)c1c(F)c(F)c(F)c(F)c1F
  Kd: > 4 mM (inactive)

## Cc1ccc(/C=C2/NC(=S)NC2=O)s1
  Kd: > 4 mM (inactive)

## NC1Cc2ccccc2C1
  Kd: > 4 mM (inactive)

## Cc1ccc2nc(SCC(=O)O)nc(C)c2c1
  Kd: > 4 mM (inactive)

## Cn1nccc1N
  Kd: > 4 mM (inactive)

## CCOC(=O)c1csc(C)n1
  Kd: > 4 mM (inactive)

## COc1ccc2[nH]c(O)c(NC(C)=O)c2c1
  Kd: > 4 mM (inactive)

## CN1CCC(NC(=O)c2ccccc2[N+](=O)[O-])CC1
  Kd: > 4 mM (inactive)

## Nc1ncccc1OCc1ccccc1
  Kd: > 4 mM (inactive)

## CCOC(=O)c1sc(SC)c2c1CCCC2O (stereo not drawn)
  Kd: > 4 mM (inactive)

## O=C(c1sc2cc([N+](=O)[O-])ccc2c1Cl)N1CCOCC1
  Kd: inactive

## Cc1cc(N)ccc1NC(=O)c1ccco1
  Kd: > 4 mM (inactive)

## O=C(O)CCC1=C2c3ccccc3CCN2C(=O)CC1
  Kd: > 4 mM (inactive)

## Cc1cc(C)n(CCCC(=O)O)n1
  Kd: > 4 mM (inactive)

## CN1CCC(NC(=O)C2CCCO2)CC1 (stereo not drawn)
  Kd: > 4 mM (inactive)

## OC1CCCN(Cc2ccccc2)C1 (stereo not drawn)
  Kd: > 4 mM (inactive)

## COc1ccccc1NC(C)=O
  Kd: > 4 mM (inactive)

## CC[C@H]1CN2CCC1C[C@@H]2[C@@H](O)c1ccnc2ccc(OC)cc12 (stereo partly drawn)
  Kd: > 4 mM (inactive)

## Cc1cc(N2CCCC2=O)c(N)cc1N
  Kd: > 4 mM (inactive)

## COc1ccc2nc(NC(=O)c3cnccn3)sc2c1
  Kd: > 4 mM (inactive)

## CN1CN(Cc2ccccc2)CN/C1=N/[N+](=O)[O-]
  Kd: > 4 mM (inactive)

## CC(C)n1nnc2cc(C(=O)O)ccc21
  Kd: > 4 mM (inactive)

## Cc1scc(C(=O)Nc2ccon2)c1-c1ccccc1
  Kd: > 4 mM (inactive)

## O=C(O)C1CCCN1Cc1c[nH]c2ccccc12 (stereo not drawn)
  Kd: > 4 mM (inactive)

## NC(=O)CNC(=O)c1ccc2ccccc2n1
  Kd: > 4 mM (inactive)

## O=CN1CCN(C2CC(=O)N(c3ccccc3)C2=O)CC1 (stereo not drawn)
  Kd: > 4 mM (inactive)

## O=S(=O)(O)c1cc[n+]([O-])cc1
  Kd: > 4 mM (inactive)

## O=C(O)CCN1CCc2ccccc2C1c1ccncc1 (stereo not drawn)
  Kd: > 4 mM (inactive)

## COc1cc2c(cc1OC)C(C)NCC2 (stereo not drawn)
  Kd: > 4 mM (inactive)

## CC(=O)CC1(O)C(=O)Nc2ccc(Br)cc21 (stereo not drawn)
  Kd: > 4 mM (inactive)

## Cc1cc2nc3c(=O)[nH]c(=O)nc-3n(CC(O)C(O)C(O)CO)c2cc1C (stereo not drawn)
  Kd: > 4 mM (inactive)

## CCc1sc(C(=O)NC)cc1Br
  Kd: > 4 mM (inactive)

## OCc1cc2ccccc2o1
  Kd: > 4 mM (inactive)

## FC(F)(F)c1nnc2ccc(N3CCOCC3)nn12
  Kd: > 4 mM (inactive)

## COc1cc(OC)c(OC)cc1C=O
  Kd: > 4 mM (inactive)

## Cc1cc2nc(SCC(=O)O)nc(C)c2cc1C
  Kd: > 4 mM (inactive)

## OCc1ccccc1O[C@@H]1O[C@H](CO)[C@@H](O)[C@H](O)[C@H]1O
  Kd: > 4 mM (inactive)

## NCC1CN(Cc2ccccc2)CCO1 (stereo not drawn)
  Kd: > 4 mM (inactive)

## O=C(NC12CC3CC(CC(C3)C1)C2)c1cnccn1
  Kd: > 4 mM (inactive)

## CNC(=S)Nc1ccc2c(c1)OCO2
  Kd: > 4 mM (inactive)

## CC1(C)Cc2nc(N3CCOCC3)c(C#N)cc2CO1
  Kd: > 4 mM (inactive)

## Cc1nnc(Nc2ccc(S(N)(=O)=O)cc2)[nH]c1=O
  Kd: > 4 mM (inactive)

## CS(=O)(=O)NC1CCN(Cc2ccccc2)CC1
  Kd: > 4 mM (inactive)

## O=C(COc1ccccc1Cl)N1CCCC1
  Kd: > 4 mM (inactive)
